One assay has as its system VSV-Ova specific TRM. Set-up: species or system mice. The following applies: mouse, in vivo.
Assay [1] has as its system virus-specific TRM within skin tumors. Set-up: species or system mice. The following applies: mouse, in vivo.

For SIINFEKL, in the assay on VSV-Ova specific TRM, the “reactivation of virus-specific TRM within skin tumors” value was “can become reactivated”. Also, the “recruitment of CD8 T cells and NK cells to tumors” value in assay [1] is “recruit CD8 T cells and NK cells to the tumors”.

The record behind these values is patent US20260144820A1, “ACTIVATION OF RESIDENT MEMORY T CELLS FOR CANCER IMMUNOTHERAPY” (priority 2015, published 2026).
